Experiments:
Assay type in all cases: cell-based
[1] = tested on: IFN-α secretion from PBMC under R848 stimulation; assay: R848-induced release of IFNα from human peripheral blood monocytes (PBMC); parameters: unit not given here; conditions: R848 5 μM, 24 h, ELISA
Experimental: (§1) Example 4: Inhibitory Effect of Compounds of the Present Invention on R848-Induced Release of IFNα and TNFα from Human Peripheral Blood Monocytes
(§2) The compounds of the present application were detected for their inhibitory effect on the production of peripheral blood monocytes. The peripheral blood monocytes were treated in vitro with the ligand-drug conjugates at different concentrations, and IFNα and TNFα produced by the peripheral blood monocytes were quantitatively detected after a certain time. The compounds of the present invention were evaluated for in-vitro activity.
(§3) The cryopreserved human PBMC cells were resuspended in a complete medium and counted, and the cell suspension was adjusted to 2.5×10^6 cells/mL with the culture medium. After the suspension was centrifuged to collect the cells the next day, the cells were resuspended using fresh culture medium. Test compounds were diluted to 4-fold final concentration in cell culture medium, 50 μL of the compounds were added into a 96-well cell plate, and 100 μL of diluted cells (800,000 cells/well) were added into each well of the 96-well plate containing the compounds, followed by addition of 50 μL R848 to a final concentration of 5 μM. The cell plate was incubated at 37° C. with 5% CO2 for 24 h. The supernatant was collected, and the TNF-α and IFN-α concentration levels in the supernatant were detected using an ELISA kit. TNF-α concentration assay was performed using Dakewe TNF-α ELISA kit (Cat #1117202), 100 μL of the serially-diluted cytokine standard was added into each well, 100 μL of the above supernatant diluted 10-fold was added into each well, and 100 μL of 1× dilution buffer R was added into each blank control well. 50 μL of biotinylated antibody working solution was added into each well. After mixing well, the plate was covered with a plate-sealing membrane and incubated at room temperature for 3 h. The plate was washed for 3 times: the liquid in each well was discarded, and 300 μL of 1× washing buffer working solution was added into each well; after 1 minute of residence, the liquid in the wells was discarded. The procedure was repeated for 3 times. 100 μL of Streptavidin-HRP working solution was added into each well. The plate was covered with the plate-sealing membrane and incubated at room temperature for 20 min. The plate was washed for 3 times, 100 μL of TMB liquid was added into each well, and the plate was incubated at room temperature (18-25° C.) in the dark for 25 min. The reaction was stopped by adding 100 μL stop solution rapidly to each well. The reading at a wavelength of 450 nm was detected by an M2e instrument within 10 min after termination.
IFN-α concentration assay was performed using Dakewe IFN-α ELISA kit (Cat #1110012), 100 μL of the serially-diluted cytokine standard was added into each well, 100 μL of the above supernatant diluted 2-fold was added into each well, and 100 μL of 1× dilution buffer R was added into each blank control well. 50 μL of biotinylated antibody working solution was added into each well. After mixing well, the plate was covered with a plate-sealing membrane and incubated at room temperature for 3 h. The plate was washed for 3 times: the liquid in each well was discarded, and 300 μL of 1× washing buffer working solution was added into each well; after 1 minute of residence, the liquid in the wells was discarded. The procedure was repeated for 3 times. 100 μL of Streptavidin-HRP working solution was added into each well. The plate was covered with the plate-sealing membrane and incubated at room temperature for 20 min. The plate was washed for 3 times, 100 μL of TMB liquid was added into each well, and the plate was incubated at room temperature (18-25° C.) in the dark for 25 min. The reaction was stopped by adding 100 μL stop solution rapidly to each well. The reading at a wavelength of 450 nm was detected by an M2e instrument within 10 min after termination. […]

[2] = tested on: TNF-α secretion from PBMC under R848 stimulation; assay: R848-induced release of TNFα from human peripheral blood monocytes (PBMC); parameters: unit not given here; conditions: R848 5 μM, 24 h, ELISA
Experimental: as §1, §2, §3
The contents of TNF-α and IFN-α were calculated from the OD450 values (Mean±standard deviation).

glucocorticoid receptor = molecular target: T1, glucocorticoid receptor (Homo sapiens, UniProt P04150); assay: Activity assay of glucocorticoid receptor reporter gene GRE; conditions: HEK293 cells transfected with pGL5 and pBIND-GR; 24 h; Dual-Glo luciferase
T1 construct: host or cells: HEK293
T1 sequence (P04150 1-777): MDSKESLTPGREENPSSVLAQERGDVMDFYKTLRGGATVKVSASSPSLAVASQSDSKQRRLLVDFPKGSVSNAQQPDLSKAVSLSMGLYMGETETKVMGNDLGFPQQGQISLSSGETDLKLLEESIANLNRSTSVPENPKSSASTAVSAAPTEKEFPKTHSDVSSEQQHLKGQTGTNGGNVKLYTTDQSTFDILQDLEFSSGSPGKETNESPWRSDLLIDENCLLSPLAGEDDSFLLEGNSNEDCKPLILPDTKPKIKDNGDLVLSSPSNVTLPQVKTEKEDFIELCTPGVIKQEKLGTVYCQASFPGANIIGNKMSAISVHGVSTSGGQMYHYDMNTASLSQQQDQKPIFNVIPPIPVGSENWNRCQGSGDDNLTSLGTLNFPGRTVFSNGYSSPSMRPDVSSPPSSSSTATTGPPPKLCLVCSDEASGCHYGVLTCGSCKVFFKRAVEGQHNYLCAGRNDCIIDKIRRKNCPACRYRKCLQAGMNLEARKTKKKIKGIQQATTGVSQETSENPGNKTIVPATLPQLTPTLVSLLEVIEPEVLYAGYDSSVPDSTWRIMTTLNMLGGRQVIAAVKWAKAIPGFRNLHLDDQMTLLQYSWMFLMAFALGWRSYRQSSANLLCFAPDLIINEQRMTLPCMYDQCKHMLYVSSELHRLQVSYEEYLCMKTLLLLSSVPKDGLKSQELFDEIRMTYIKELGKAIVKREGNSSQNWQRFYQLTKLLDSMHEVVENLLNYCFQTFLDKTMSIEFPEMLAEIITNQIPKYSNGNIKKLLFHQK
Experimental: HEK293 cells were cultured in DMEM+10% FBS medium in a carbon dioxide incubator humidified at 37° C. with 5% carbon dioxide.
HEK293 cells were digested with trypsin, and the HEK293 cell resuspension was adjusted to 200,000 cell/mL in medium (96 well plate: 100 μL/well).
Transfection reagent mixtures were prepared according to Tables 5a and 5b below, mixed well and left to stand at room temperature for 20 min.
The prepared transfection mixtures were added to 10 mL of the cell density-adjusted resuspension, mixed well by turning the mixtures upside down, and seeded into a 96-well plate at a volume of 100 μL/well.
The 96-well plate was incubated in a humidified incubator at 37° C. with 5% carbon dioxide for 24 h.
The test plate was placed back into the incubator and incubated for 24 h.
The test plate was detected using the Dual-Glo Luciferase Assay System kit from Promega, and the fluorescence signal of Firefly Luciferase and the fluorescence signal of Renilla Luciferase were read using Enspire, respectively.
The final measurement value was a normalized value “F/R” obtained by dividing the Firefly Luciferase fluorescent signal by the Renilla Luciferase fluorescent signal.
The data were copied and pasted into Excel, and the activation rate was obtained through an equation.
The data were imported into MS Excel and subjected to curve fitting by using XLFit excel add-in version 5.4.0.8 to obtain an EC50 value.
Y is the agonism and X is the concentration of the compound.

C[C@]12C=CC(=O)C=C1CC[C@@H]1[C@@H]2[C@@H](O)C[C@@]2(C)[C@H]1C[C@H]1O[C@@H](c3ccn(Cc4cccc(N)c4)c3)O[C@]12C(=O)CO [Compound 1]
IFN-α content in supernatant (Mean±standard deviation) ([1]; compound 4 nM): 228.3 ± 0.2 | IFN-α content in supernatant (Mean±standard deviation) ([1]; compound 20 nM): 0 ± 0 | IFN-α content in supernatant (Mean±standard deviation) ([1]; compound 100 nM): 0 ± 0 | TNF-α content in supernatant (Mean±standard deviation) ([2]; compound 4 nM): 1187.6 ± 87.4 | TNF-α content in supernatant (Mean±standard deviation) ([2]; compound 20 nM): 611.9 ± 10.7 | TNF-α content in supernatant (Mean±standard deviation) ([2]; compound 100 nM): 592.8 ± 92.1

C[C@]12C=CC(=O)C=C1CC[C@@H]1[C@@H]2[C@@H](O)C[C@@]2(C)[C@H]1C[C@H]1O[C@@H](c3ccn(Cc4ccc(N)cc4)c3)O[C@]12C(=O)CO [Compound 2]
EC50 (glucocorticoid receptor): 0.15 nM | IFN-α content in supernatant (Mean±standard deviation) ([1]; compound 4 nM): 108 ± 11 | IFN-α content in supernatant (Mean±standard deviation) ([1]; compound 20 nM): 11.1 ± 11.1 | IFN-α content in supernatant (Mean±standard deviation) ([1]; compound 100 nM): 0 ± 0 | TNF-α content in supernatant (Mean±standard deviation) ([2]; compound 4 nM): 898.3 ± 27.7 | TNF-α content in supernatant (Mean±standard deviation) ([2]; compound 20 nM): 584.4 ± 171.1 | TNF-α content in supernatant (Mean±standard deviation) ([2]; compound 100 nM): 623.3 ± 238.4

From patent US20250179114A1, “Anti-Inflammatory Compound and Use Thereof” (DUALITY BIOLOGICS (SUZHOU) CO., LTD., priority 2021, published 2025)
